US7977349B2, “Substituted quinolones III” (Aicuris GmbH & Co. KG, priority 2006, dated 2011)

Key:
[1] = system: HCMV; assay: Anti-HCMV (anti-human cytomegalovirus) cytopathogenicity test; assay type: cell-based; details: Human betaherpesvirus 5, NHDF, 144 h, concentration inhibiting the CPE by 50% vs untreated virus control; HCMV-infected NHDF cells, 6 days, visual assessment
Protocol: Anti-HCMV (Anti-Human Cytomegalovirus) Cytopathogenicity Tests The test compounds are employed as 50 millimolar (mM) solutions in dimethyl sulfoxide (DMSO). Ganciclovir®, Foscarnet® and Cidofovir® are used as reference compounds. After the addition of 2 μl of the 50, 5, 0.5 and 0.05 mM DMSO stock solutions respectively to 98 μl portions of cell culture medium in row […] for duplicate determinations, 1:2 dilutions are carried out with 50 μl portions of medium up to row 11 of the 96-well plate. The wells in rows 1 and 12 each contain 50 μl of medium. 150 μl of a suspension of 1×10^4 cells (human prepuce fibroblasts [NHDF]) are then pipetted into each of the wells (row 1=cell control) and, in rows 2-12, a mixture of HCMV-infected and uninfected NHDF cells (M.O.I.=0.001-0.002), i.e. 1-2 infected cells per 1000 uninfected cells. Row 12 (without substance) serves as virus control. The final test concentrations are 250-0.0005 μM. The plates are incubated at 37° C./5% CO2 for 6 days, i.e. until all the cells in the virus controls are infected (100% cytopathogenic effect [CPE]). The wells are then fixed and stained by adding a mixture of formalin and Giemsa's dye (30 minutes), washed with double-distilled water and dried in a drying oven at 50° C. The plates are then assessed visually using an overhead microscope (plaque multiplier from Technomara). The following data can be obtained from the test plates: EC50 (HCMV)=substance concentration in μM which inhibits the CPE (cytopathic effect) by 50% compared with the untreated virus control;

[2] = Cytostatic effects on NHDF cells in the anti-HCMV cytopathogenicity test; assay type: cell-based, human; details: human, concentration at which no visible cytostatic effects on NHDF cells are evident vs untreated cell control
Protocol: Anti-HCMV (Anti-Human Cytomegalovirus) Cytopathogenicity Tests The test compounds are employed as 50 millimolar (mM) solutions in dimethyl sulfoxide (DMSO). Ganciclovir®, Foscarnet® and Cidofovir® are used as reference compounds. After the addition of 2 μl of the 50, 5, 0.5 and 0.05 mM DMSO stock solutions respectively to 98 μl portions of cell culture medium in row […] for duplicate determinations, 1:2 dilutions are carried out with 50 μl portions of medium up to row 11 of the 96-well plate. The wells in rows 1 and 12 each contain 50 μl of medium. 150 μl of a suspension of 1×10^4 cells (human prepuce fibroblasts [NHDF]) are then pipetted into each of the wells (row 1=cell control) and, in rows 2-12, a mixture of HCMV-infected and uninfected NHDF cells (M.O.I.=0.001-0.002), i.e. 1-2 infected cells per 1000 uninfected cells. Row 12 (without substance) serves as virus control. The final test concentrations are 250-0.0005 μM. The plates are incubated at 37° C./5% CO2 for 6 days, i.e. until all the cells in the virus controls are infected (100% cytopathogenic effect [CPE]). The wells are then fixed and stained by adding a mixture of formalin and Giemsa's dye (30 minutes), washed with double-distilled water and dried in a drying oven at 50° C. The plates are then assessed visually using an overhead microscope (plaque multiplier from Technomara). The following data can be obtained from the test plates: CC50 (NHDF)=substance concentration in μM at which no visible cytostatic effects on the cells are evident compared with the untreated cell control;

Compound	EC50 [1] [µM]	CC50 at 6 days [2] [µM]
COc1c(N2CCC(C(=O)O)CC2)c(F)cc2c(=O)c(C(=O)NCc3ccc(C(F)(F)F)cc3C)cn(CC(F)(F)F)c12 [Example 54]	0.022	21
COc1c(N2CCCC(CC(=O)O)C2)c(F)cc2c(=O)c(C(=O)NCc3ccc(Cl)cc3Cl)cn(CC(F)(F)F)c12 (centres unmarked) [Example 51, [3-{[(2,4-Dichlorobenzyl)amino]carbonyl}-6-fluoro-8-methoxy-4-oxo-1-(2,2,2-trifluoroethyl)-1,4-dihydroquinolin-7-yl]piperidin-3-ylacetic acid]	0.026	47
CCOC(=O)C1CCN(c2c(F)cc3c(=O)c(C(=O)NCc4ccc(Cl)cc4Cl)cn(CC(F)(F)F)c3c2OC)CC1 [Example 1, Ethyl 1-[3-{[(2,4-dichlorobenzyl)amino]carbonyl}-6-fluoro-8-methoxy-4-oxo-1-(2,2,2-trifluoroethyl)-1,4-dihydroquinolin-7-yl]piperidine-4-carboxylate]	0.009	94
COc1c(N2C[C@@H](C)[C@@H](O)[C@@H](C)C2)c(F)cc2c(=O)c(C(=O)NCc3ccc(OC(F)(F)F)cc3C)cn(CC(F)(F)F)c12 [Example 32, 6-Fluoro-7-[(all-cis)-4-hydroxy-3,5-dimethylpiperidin-1-yl]-8-methoxy-N-[2-methyl-4-(trifluoromethoxy)benzyl]-4-oxo-1-(2,2,2-trifluoroethyl)-1,4-dihydroquinoline-3-carboxamide]	0.017	11
COc1c(N2CCC(C(N)=O)CC2)c(F)cc2c(=O)c(C(=O)NCc3ccc(Cl)cc3Cl)cn(CC(F)(F)F)c12 [Example 27]	0.013	21
COc1c(N2CCC[C@H](CC(=O)O)C2)c(F)cc2c(=O)c(C(=O)NCc3ccc(OC(F)(F)F)cc3C)cn(CC(F)(F)F)c12 [Example 73, {(3R)-1-[6-Fluoro-8-methoxy-3-({[2-methyl-4-(trifluoromethoxy)benzyl]amino}carbonyl)-4-oxo-1-(2,2,2-trifluoroethyl)-1,4-dihydroquinolin-7-yl]piperidin-3-yl}acetic acid]	0.003	47
CCOC(=O)C1CCN(c2c(F)cc3c(=O)c(C(=O)NCc4ccc(Cl)cc4C)cn(CC(F)(F)F)c3c2OC)CC1 [Example 7]	0.018	94
COc1c(N2CCC(C(=O)O)CC2)c(F)cc2c(=O)c(C(=O)NCc3ccc(OC(F)(F)F)cc3C)cn([C@@H]3C[C@@H]3F)c12 [Example 63]	0.008	47
COc1c(N2CCC(CC(=O)O)CC2)c(F)cc2c(=O)c(C(=O)NCc3ccc(OC(F)(F)F)cc3C)cn(CC(F)(F)F)c12 [Example 53, [6-Fluoro-8-methoxy-3-({[2-methyl-4-(trifluoromethoxy)benzyl]amino}carbonyl)-4-oxo-1-(2,2,2-trifluoroethyl)-1,4-dihydroquinolin-7-yl]piperidin-4-ylacetic acid]	0.005	94
COc1c(N2CCC(C(N)=O)CC2)c(F)cc2c(=O)c(C(=O)NCc3ccc(C(F)(F)F)cc3C)cn(CC(F)(F)F)c12 [Example 30]	0.034	11
CCOC(=O)C1CCN(c2c(F)cc3c(=O)c(C(=O)NCc4ccc(OC(F)(F)F)cc4Cl)cn(CC(F)(F)F)c3c2OC)CC1 [Example 3, Ethyl 1-[3-({[2-chloro-4-(trifluoromethoxy)benzyl]amino}carbonyl)-6-fluoro-8-methoxy-4-oxo-1-(2,2,2-trifluoroethyl)-1,4-dihydroquinolin-7-yl]piperidine-4-carboxylate]	0.008	24
CCOc1c(N2CCC(C(=O)O)CC2)c(F)cc2c(=O)c(C(=O)NCc3ccc(OC(F)(F)F)cc3C)cn(CC(F)(F)F)c12 [Example 79, 1-[8-Ethoxy-6-fluoro-3-({[2-methyl-4-(trifluoromethoxy)benzyl]amino}carbonyl)-4-oxo-1-(2,2,2-trifluoroethyl)-1,4-dihydroquinolin-7-yl]piperidine-4-carboxylic acid]	0.002	125
COc1c(N2CCC(C(=O)O)CC2)c(F)cc2c(=O)c(C(=O)NCc3ccc(OC(F)(F)F)cc3C)cn(CC(F)F)c12 [Example 62]	0.001	148
COc1c(N2CCC3(CC2)CNC(=O)C3)c(F)cc2c(=O)c(C(=O)NCc3ccc(OC(F)(F)F)cc3C)cn(C3CC3)c12 [Example 34, 1-Cyclopropyl-6-fluoro-8-methoxy-N-[2-methyl-4-(trifluoromethoxy)benzyl]-4-oxo-7-(3-oxo-2,8-diazaspiro[4.5]dec-8-yl)-1,4-dihydroquinoline-3-carboxamide]	0.04	11
CCOC(=O)C1CCN(c2c(F)cc3c(=O)c(C(=O)NCc4ccc(OC(F)(F)F)cc4C)cn(CC(F)(F)F)c3c2OC)CC1 [Example 2, Ethyl 1-[6-fluoro-8-methoxy-3-({[2-methyl-4-(trifluoromethoxy)benzyl]amino}carbonyl)-4-oxo-1-(2,2,2-trifluoroethyl)-1,4-dihydroquinolin-7-yl]piperidine-4-carboxylate]	0.005	47
COc1c(N2CCC(C(=O)O)CC2)c(F)cc2c(=O)c(C(=O)NCc3ccc(OC(F)(F)F)cc3C)cn(C(C)CF)c12 (centres unmarked) [Example 65]	0.079	106
CCOC(=O)C1CCN(c2c(F)cc3c(=O)c(C(=O)NCc4ccc(Cl)cc4Cl)cn([C@H]4C[C@H]4F)c3c2OC)CC1 [Example 13]	0.019	23
COc1c(N2CCC(C(=O)O)CC2)c(F)cc2c(=O)c(C(=O)NCc3c(C)cc(Cl)cc3Cl)cn(CC(F)(F)F)c12 [Example 57]	0.026	23
COc1c(N2CCC(C(=O)O)CC2)c(F)cc2c(=O)c(C(=O)NCc3ccc(Cl)cc3C)cn(CC(F)(F)F)c12 [Example 58]	0.006	47
COc1ccc(CNC(=O)c2cn(CC(F)(F)F)c3c(OC)c(N4CCC(C(=O)O)CC4)c(F)cc3c2=O)c(Cl)c1 [Example 55]	0.031	16
COc1c(N2CCC(C(N)=O)CC2)c(F)cc2c(=O)c(C(=O)NCc3ccc(OC(F)(F)F)cc3C)cn(CC(F)(F)F)c12 [Example 31, 1-[6-Fluoro-8-methoxy-3-({[2-methyl-4-(trifluoromethoxy)benzyl]amino}carbonyl)-4-oxo-1-(2,2,2-trifluoroethyl)-1,4-dihydroquinolin-7-yl]piperidine-4-carboxamide]	0.008	16
COc1c(N2CCC(C(=O)O)CC2)c(F)cc2c(=O)c(C(=O)NCc3ccc(OC(F)(F)F)cc3C)cn(C3CCC3)c12 [Example 61]	0.007	21
COc1c(N2CCC3(CC2)CNC(=O)C3)c(F)cc2c(=O)c(C(=O)NCc3ccc(OC(F)(F)F)cc3Cl)cn(CC(F)(F)F)c12 [Example 36]	0.014	21
COc1c(N2CCC(C(=O)O)CC2)c(F)cc2c(=O)c(C(=O)NCc3ccc(OC(F)(F)F)cc3C)cn(CC(F)(F)F)c12 [Example 47, 1-[6-Fluoro-8-methoxy-3-({[2-methyl-4-(trifluoromethoxy)benzyl]amino}carbonyl)-4-oxo-1-(2,2,2-trifluoroethyl)-1,4-dihydroquinolin-7-yl]piperidine-4-carboxylic acid]	0.004	86
COc1c(N2CCC3(CC2)CNC(=O)C3)c(F)cc2c(=O)c(C(=O)NCc3ccc(OC(F)(F)F)cc3C)cn(CC(F)(F)F)c12 [Example 33, 6-Fluoro-8-methoxy-N-[2-methyl-4-(trifluoromethoxy)benzyl]-4-oxo-7-(3-oxo-2,8-diazaspiro[4.5]dec-8-yl)-1-(2,2,2-trifluoroethyl)-1,4-dihydroquinoline-3-carboxamide]	0.017	19
